Consider one compound from paper PMC12692955, “Acetylbinankadsurin A Decreases Macrophage Glycolysis and Pro-Inflammatory Phenotype Polarization via Inhibiting HIF-1α to Alleviate Hepatic Fibrosis in Mice” (Molecules, 2025).

This test has as its target T1, HIF-1α (Homo sapiens, UniProt Q16665).
T1 construct: gene HIF1A; recombinant protein HIF-1α (MCE #HY-P74888)
In words: SPR (Biacore T200, HIF-1α amine-coupled to CM5 chip). The class given is binding.

T1 sequence (Q16665 whole entry): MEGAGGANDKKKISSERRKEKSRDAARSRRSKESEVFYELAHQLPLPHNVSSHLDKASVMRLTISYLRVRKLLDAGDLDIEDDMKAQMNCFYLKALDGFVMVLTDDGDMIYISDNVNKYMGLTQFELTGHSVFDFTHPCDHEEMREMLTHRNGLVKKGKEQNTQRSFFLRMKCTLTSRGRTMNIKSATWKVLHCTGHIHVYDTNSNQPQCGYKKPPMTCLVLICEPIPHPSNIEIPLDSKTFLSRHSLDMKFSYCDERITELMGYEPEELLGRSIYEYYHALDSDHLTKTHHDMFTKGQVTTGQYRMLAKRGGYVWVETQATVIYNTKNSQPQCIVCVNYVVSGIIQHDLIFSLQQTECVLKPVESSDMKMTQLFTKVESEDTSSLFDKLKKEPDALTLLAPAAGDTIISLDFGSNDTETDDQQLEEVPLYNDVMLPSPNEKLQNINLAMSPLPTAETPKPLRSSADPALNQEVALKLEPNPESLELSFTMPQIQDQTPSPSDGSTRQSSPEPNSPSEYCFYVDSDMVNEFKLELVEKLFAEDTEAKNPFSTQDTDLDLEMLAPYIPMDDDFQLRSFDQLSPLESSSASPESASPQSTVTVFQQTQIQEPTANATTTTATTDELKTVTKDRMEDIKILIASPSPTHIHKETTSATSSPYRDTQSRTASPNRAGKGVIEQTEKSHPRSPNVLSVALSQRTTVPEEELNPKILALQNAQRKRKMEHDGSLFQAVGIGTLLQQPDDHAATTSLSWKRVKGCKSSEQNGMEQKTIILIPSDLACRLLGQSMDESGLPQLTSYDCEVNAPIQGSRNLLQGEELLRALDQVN

A word on the Kd: it is the constant that tells how readily two partners part at equilibrium. High values mean lower affinity, low ones higher affinity. On to `COc1cc2c(c(O)c1OC)-c1c(cc3c(c1OC)OCO3)[C@H](OC(C)=O)[C@H](C)[C@H](C)C2` [ACBA, Acetylbinankadsurin A], for which binding was put at a Kd of 13 µM.
